Reference: patent US11111232B2, “Substituted cyclobutylpyridine and cyclobutylpyrimidine compounds as indoleamine 2,3-dioxygenase (IDO) inhibitors” (MERCK SHARP & DOHME CORP., priority 2017, dated 2021)

How the values were obtained:
Type in all cases: cell-based
IDO1 [1] = target: T1, IDO1 (Homo sapiens, UniProt P14902); assay: IDO1 human whole blood assay; parameters: Human whole blood was drawn in sodium heparin coated tubes from healthy internal donors; from tissue; host or cells: human whole blood from healthy donors, stimulated with LPS and IFNγ; details: LPS and IFNγ 100 ng/mL, 18 h, kynurenine by LC/MS/MS
T1 sequence (P14902 whole entry): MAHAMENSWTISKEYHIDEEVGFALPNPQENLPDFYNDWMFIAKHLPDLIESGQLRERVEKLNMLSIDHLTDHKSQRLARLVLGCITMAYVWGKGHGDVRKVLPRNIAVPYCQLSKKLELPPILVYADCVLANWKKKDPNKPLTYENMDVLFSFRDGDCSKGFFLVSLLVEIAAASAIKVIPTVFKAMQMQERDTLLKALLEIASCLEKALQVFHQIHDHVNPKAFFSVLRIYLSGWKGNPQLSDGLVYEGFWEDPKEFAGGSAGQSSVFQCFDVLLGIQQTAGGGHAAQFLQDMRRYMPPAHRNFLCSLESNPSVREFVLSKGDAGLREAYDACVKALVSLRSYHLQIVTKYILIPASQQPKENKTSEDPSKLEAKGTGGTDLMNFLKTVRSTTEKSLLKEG
Method: IDO1Human Whole Blood Assay
Compounds to be tested were serially diluted in ten 3-fold steps in DMSO starting from 10 mM. […] LPS and IFNγ was prepared in RPMI to a 10× of final conc. (1000 ng/mL), final concentration is 100 ng/mL.
Human whole blood was drawn in sodium heparin coated tubes from healthy internal donors. […] of blood was transferred to each of the wells of a v-bottom 96 well plate. […] of compound was transferred from intermediate dilution plate, and incubated for 15 min. 30 μL from stimulants was then transferred to blood and mixed thoroughly. Plate was covered with breathable membrane and incubated at 37° C. for overnight (18 h).
On day 2 isotope labeled standard of kynurenine and tryptophan was made in water at 10× concentration and […] was added to the blood at […] final concentration. The assay plates were centrifuged at 300×G for 10 min with no brake to separate plasma from red blood cells. […] of plasma samples was removed without disturbing red blood cells. Plasma was diluted with RPMI in 1:1 ratio and proteins were precipitated out with two volume of Acetonitrile. The plates was centrifuged at 4000×G for 60 min. 20 mL of supernatant was carefully transferred to a 384 well plate contain 40 mL of 0.1% formic acid in water and analyzed by LC/MS/MS.
LC/MS/MS analyses were performed using Thermo Fisher's LX4-TSQ Quantum Ultra system. This system consists of four Agilent binary high-performance liquid chromatography (HPLC) pumps and a TSQ Quantum Ultra triple quadruple MS/MS instrument. For each sample, […] were injected onto an Atlantis T3 column (2.1 mm×150 mm, […]) from Waters. The mobile phase gradient pumped at 0.8 mL/min was used to elute the analytes from the column at 25° C. […] Mobile phase A consisted of 0.1% formic acid in water. Mobile phase B consisted of 0.1% of formic acid in acetonitrile. Data was acquired in positive mode using a HESI interface. The operational parameters for the TSQ Quantum Ultra instrument were a spray voltage of 4000 V, capillary temperature of 380° C., vaporizer temperature 400° C., shealth gas 60 arbitrary units, Aux gas 20 arbitrary units, tube lens 85 and collision gas 1.2 mTorr. […] The peak area was integrated by Xcalibur Quan software. The ratios between the kynurenine generated in the reaction and 2D6-Kynurenine spiked-in internal standard were used to generate percentage inhibition and IC50 values. Compounds were titrated and IC50′s were calculated by 4 parameter sigmoidal curve fitting formula.

TDO = target: T2, TDO (Homo sapiens, UniProt P48775); assay: TDO cellular assay in frozen SW48 cells; details: 300 uM L-tryptophan, about 48 hours, fluorescence readout
T2 construct: endogenous in cells; host or cells: SW48 cells (A2780 cells as low-TDO control)
T2 sequence (P48775 whole entry): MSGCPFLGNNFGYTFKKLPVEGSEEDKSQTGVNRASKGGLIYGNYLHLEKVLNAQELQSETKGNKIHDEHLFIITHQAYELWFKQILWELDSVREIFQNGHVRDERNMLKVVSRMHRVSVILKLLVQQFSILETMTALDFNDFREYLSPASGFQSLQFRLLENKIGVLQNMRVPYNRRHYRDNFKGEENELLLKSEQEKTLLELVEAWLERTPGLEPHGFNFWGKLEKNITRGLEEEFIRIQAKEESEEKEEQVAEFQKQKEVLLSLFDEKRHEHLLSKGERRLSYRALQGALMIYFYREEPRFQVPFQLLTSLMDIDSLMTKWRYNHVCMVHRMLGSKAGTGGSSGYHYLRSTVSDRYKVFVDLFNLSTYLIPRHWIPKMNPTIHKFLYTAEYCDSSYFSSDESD
Method: TDO Cellular Assay in Frozen SW48 Cells
SW48 cells were cultured in complete RPMI culture medium (90% RPMI, 10% heat-inactivated fetal bovine serum).
Compounds to be tested were serially diluted in ten 3-fold steps in DMSO starting from 10 mM DMSO stocks in Echo low volume plate(s). […] The cells were spun down at 350 g in a table top centrifuge for 5 minutes and suspended in same volume of RPMI assay medium. […] Sterile L-tryptophan (Sigma, Cat #T0254) was added to the cells with final concentration of 300 uM.
SW48 and A2780 cells were dispensed to the respective wells of 384-well assay plates containing the compounds. The plates were incubated for about 48 hours at a 37° C., 5% CO2 incubator. Afterwards, 12 μL of 0.5 M ethyl isonipecotate (Sigma Aldrich, Cat #E33505) in dimethyl sulfoxide were added into each well and the plates were sealed and incubated at 37° C. without CO2 overnight. The plates were centrifuged for 1 minute at 200×g. The resulting fluorescence was measured in a Spectramax plate reader (Molecular Devices) with a 400 nm excitation filter and a 510 nm emission filter.
The fluorescence intensity of each well was corrected for the background observed in wells with A2780 cells and was expressed as a fraction of the intensity observed in wells of SW48 cells and DMSO only. Potencies were calculated by linear least squares fit to the four parameter logistic IC50 equation.

IDO1 [2] = target: T1, IDO1; assay: IDO1 cellular assay in Hela cells stimulated with IFNγ; details: IFNγ 100 ng/mL, 300 uM L-tryptophan, about 48 hours, fluorescence readout
Method: IDO1 Cellular Assay in Hela Cells Stimulated with IFNγ
Hela cells were cultured in complete Hela culture medium (90% EMEM, 10% heat-inactivated fetal bovine serum) and expanded to about 1×10^9 cells. The cells were then collected and frozen down at 1×10^7 cells/vial in 1 mL frozen medium (90% complete Hela culture medium, 10% DMSO)
Compounds to be tested were serially diluted in ten 3-fold steps in DMSO starting from 10 mM DMSO stocks in Echo low volume plate(s).
Frozen Hela cells were thawed and transferred into Hela assay medium (99% complete Hela culture medium, 1% Pen/Strep) with 20 mL medium/vial of cells. The cells were spun down at 250 g in a table top centrifuge for 5 min and suspended in same volume of Hela assay medium. […] Sterile L-tryptophan were added to the cells with final concentration of 300 uM L-tryptophan. A small aliquot (2 mL/plate) of Hela cells were set aside and were not treated with IFNγ, to serve as the Max-E control.
Hela cells with and without IFNγ were dispensed to the respective wells of 384-well assay plates containing the compounds. The plates were incubated for about 48 hours at a 37° C., 5% CO2 incubator. Afterwards, […] of 0.5 M methyl isonipecotate in dimethyl sulfoxide were added into each well and the plates were sealed and incubated at 37° C. without CO2 overnight. The plates were centrifuged for 1 min at 200×g. The resulting fluorescence was measured in a Spectramax plate reader (Molecular Devices) with a 400 nm excitation filter and a 510 nm emission filter.
Potencies were calculated by linear least squares fit to the four parameter logistic IC50 equation.

Structure (SMILES)	IC50 (IDO1 [1])	IC50 (TDO)	IC50 (IDO1 [2])
O=C(Nc1ccc(C2(C(=O)Nc3ccc(F)nc3)CCC2)cn1)C1CCCCC1 [Example 7, N-(5-{1-[(6-fluoropyridin-3-yl)carbamoyl]cyclobutyl}pyridin-2-yl) cyclohexanecarboxamide]	8560 nM	≥ 10000 nM	25 nM
O=C(Nc1ccc(C2(C(=O)Nc3ccc(F)cc3)CCC2)cn1)c1cccc(Cl)c1F [Example 14, 3-chloro-2-fluoro-N-(5-{1-[(4-fluorophenyl)carbamoyl]cyclobutyl}pyridin-2-yl)benzamide]	157 nM	≥ 10000 nM	2080 nM
O=C(Nc1ccc(C2(C(=O)Nc3ccc(F)cc3)CCC2)cn1)c1cccc(F)c1 [Example 23, 3-Fluoro-N-(5-(1-((4-fluorophenyl)carbamoyl)cyclobutyl)pyridin-2-yl)benzamide]	102 nM	≥ 10000 nM	3 nM
N#Cc1cccc(C(=O)Nc2ccc(C3(C(=O)Nc4ccc(F)cc4)CCC3)cn2)c1 [Example 24, 3-cyano-N-(5-{1-[(4-fluorophenyl)carbamoyl]cyclobutyl}pyridin-2-yl)benzamide]	351 nM	≥ 10000 nM	8 nM
O=C(Nc1ccc(C2(C(=O)Nc3ccc(F)cc3)CCC2)cn1)c1cncc(Cl)c1 [Example 25, 5-chloro-N-(5-{1-[(4-fluorophenyl)carbamoyl]cyclobutyl}pyridin-2-yl)pyridine-3-carboxamide]	561 nM	≥ 10000 nM	12 nM
O=C(Nc1ccc(C2(C(=O)Nc3ccc(F)cc3)CCC2)cn1)c1ccnc(C(F)(F)F)c1 [Example 29, N-(5-{1-[(4-fluorophenyl)carbamoyl]cyclobutyl}pyridin-2-yl)-2-(trifluoromethyl)pyridine-4-carboxamide]	2880 nM	≥ 10000 nM	28 nM
O=C(Nc1ccc(C2(C(=O)Nc3ccc(F)cc3)CCC2)nc1)c1cccc(Cl)c1 [Example 36, 3-Chloro-N-(6-(1-((4-fluorophenyl)carbamoyl)cyclobutyl)pyridin-3-yl)benzamide]	252 nM	≥ 10000 nM	3 nM
O=C(Nc1ccc(C2(C(=O)Nc3ccc(F)cn3)CCC2)nc1)c1cccc(Cl)c1 [Example 37, 3-chloro-N-(6-{1-[(5-fluoropyridin-2-yl)carbamoyl]cyclobutyl}pyridin-3-yl)benzamide]	1760 nM	≥ 10000 nM	15 nM
O=C(Nc1ccc(C2(NC(=O)c3ccc(Cl)nc3)CCC2)nc1)c1cc(F)cc(F)c1 [Example 41, 6-chloro-N-(1-{5-[(3,5-difluorobenzene-1-carbonyl)amino]pyridin-2-yl}cyclobutyl)pyridine-3-carboxamide]	406 nM	≥ 10000 nM	9 nM
O=C(Nc1ccc(C2(NC(=O)c3ccc(Cl)nc3)CCC2)nc1)c1cccc(Cl)c1 [Example 42, 6-chloro-N-(1-{5-[(3-chlorobenzene-1-carbonyl)amino]pyridin-2-yl}cyclobutyl)pyridine-3-carboxamide]	696 nM	≥ 10000 nM	8 nM
N#Cc1cncc(C(=O)Nc2ccc(C3(NC(=O)c4ccc(Cl)nc4)CCC3)nc2)c1 [Example 49, N-(6-{1-[(6-chloropyridine-3-carbonyl)amino]cyclobutyl}pyridin-3-yl)-5-cyanopyridine-3-carboxamide]	–	≥ 10000 nM	1210 nM
O=C(NC1(c2ccc(NC(=O)c3ncccn3)cn2)CCC1)c1ccc(Cl)nc1 [Example 50, N-(6-{1-[(6-chloropyridine-3-carbonyl)amino]cyclobutyl}pyridin-3-yl)pyrimidine-2-carboxamide]	–	≥ 10000 nM	1700 nM
O=C(Nc1ccc(C2(NC(=O)c3ccc(Cl)nc3)CCC2)nc1)c1cccc(F)c1 [Example 51, 6-chloro-N-(1-{5-[(3-fluorobenzene-1-carbonyl)amino]pyridin-2-yl}cyclobutyl)pyridine-3-carboxamide]	–	≥ 10000 nM	20 nM
O=C(Nc1ccc(C2(C(=O)Nc3ccc(F)cc3)CCC2)nc1CO)c1cccc(Cl)c1 [Example 55, 3-Chloro-N-(6-(1-((4-fluorophenyl)carbamoyl)cyclobutyl)-2-(hydroxymethyl)pyridin-3-yl)benzamide]	9 nM	–	2 nM
